{
  "source": "patent US12409179B2",
  "about": "(GENEROS BIOPHARMA LTD., priority 2019, dated 2025)",
  "key": {"[1]": {"test_system": "Lewis rat adjuvant-induced arthritis model", "assay": "Embodiment 1: oral Nib1 and injected methotrexate in Lewis rat adjuvant-induced arthritis model (joint score, paw volume, AUC)", "format": "in vivo"}, "[2]": {"test_system": "rat adjuvant-induced arthritis model", "assay": "Embodiment 2: oral Nib1 and medium-dose methotrexate in rat adjuvant-induced arthritis model (joint score, paw volume, AUC)", "format": "in vivo, Lewis rat", "details": "MTX 0.5 mpk, Nib1 5 mpk, Nib1 5 mpk + MTX 0.5 mpk"}, "[3]": {"test_system": "adjuvant-induced arthritis in rats", "assay": "Embodiment 3: oral Nib1 and methotrexate in adjuvant-induced arthritis in rats (joint score, paw volume, AUC)", "format": "in vivo, Lewis rat"}, "[4]": {"details": "rat, in vivo, po, 10 mg/kg"}, "[5]": {"details": "rat, in vivo"}, "[6]": {"details": "day 0, oral, Tofacitinib 5 mpk, MTX 0.05 mpk, Nib1 1 mpk, Nib1 1 mpk + MTX 0.05 mpk"}, "[7]": {"details": "day 8, oral, Tofacitinib 5 mpk, MTX 0.05 mpk, Nib1 1 mpk, Nib1 1 mpk + MTX 0.05 mpk"}, "[8]": {"details": "day 11, oral, Tofacitinib 5 mpk, MTX 0.05 mpk, Nib1 1 mpk, Nib1 1 mpk + MTX 0.05 mpk"}, "[9]": {"details": "day 15, oral, Tofacitinib 5 mpk, MTX 0.05 mpk, Nib1 1 mpk, Nib1 1 mpk + MTX 0.05 mpk"}, "[10]": {"details": "day 18, oral, Tofacitinib 5 mpk, MTX 0.05 mpk, Nib1 1 mpk, Nib1 1 mpk + MTX 0.05 mpk"}},
  "data": [
    {"smiles": "O=c1[nH]c2ccccc2n1C1CCN(CCCC(c2ccc(F)cc2)c2ccc(F)cc2)CC1", "note": "[Nib1, Pimozide]", "values": [
      {"measurement": "the therapeutic effects compared with vehicle group (paw volume x time AUC %)", "setting": "[1]; methotrexate 0.5 mg/kg intraperitoneal once per week, Nib1 10 mg/kg oral once every two days", "value": 66.6, "unit": "%"},
      {"measurement": "paw volume AUC relative to vehicle group, as fraction", "setting": "[1]; methotrexate 0.5 mg/kg intraperitoneal, Nib1 10 mg/kg oral", "value": 0.666},
      {"measurement": "Relative to G2 percentage (%) (AUC of changes in paw volume)", "setting": "[2]; Embodiment 2, G2 = Vehicle, Tofacitinib 5 mpk", "value": 56.9, "unit": "%"},
      {"measurement": "Total area (AUC of changes in paw volume)", "setting": "[2]; Embodiment 2, Tofacitinib 5 mpk, in mL·day", "value": 21.32},
      {"measurement": "Clinical scoring of arthritis (sum of the scores of the quadrupedal joints), Average value", "setting": "[2]; day 0, Tofacitinib 5 mpk", "value": 0},
      {"measurement": "paw volume (right hind foot), Average value", "setting": "[2]; day 0, Tofacitinib 5 mpk", "value": 1.02, "unit": "mL"},
      {"measurement": "Clinical scoring of arthritis (sum of the scores of the quadrupedal joints), Average value", "setting": "[2]; day 7, Tofacitinib 5 mpk", "value": 0.63},
      {"measurement": "paw volume (right hind foot), Average value", "setting": "[2]; day 7, Tofacitinib 5 mpk", "value": 1.71, "unit": "mL"},
      {"measurement": "Clinical scoring of arthritis (sum of the scores of the quadrupedal joints), Average value", "setting": "[2]; day 13, Tofacitinib 5 mpk", "value": 1.75},
      {"measurement": "paw volume (right hind foot), Average value", "setting": "[2]; day 13, Tofacitinib 5 mpk", "value": 1.88, "unit": "mL"},
      {"measurement": "Clinical scoring of arthritis (sum of the scores of the quadrupedal joints), Average value", "setting": "[2]; day 15, Tofacitinib 5 mpk", "value": 5.50},
      {"measurement": "paw volume (right hind foot), Average value", "setting": "[2]; day 15, Tofacitinib 5 mpk", "value": 1.94, "unit": "mL"},
      {"measurement": "Clinical scoring of arthritis (sum of the scores of the quadrupedal joints), Average value", "setting": "[2]; day 17, Tofacitinib 5 mpk", "value": 6.75},
      {"measurement": "paw volume (right hind foot), Average value", "setting": "[2]; day 17, Tofacitinib 5 mpk", "value": 2.05, "unit": "mL"},
      {"measurement": "Clinical scoring of arthritis (sum of the scores of the quadrupedal joints), Average value", "setting": "[2]; day 20, Tofacitinib 5 mpk", "value": 7.00},
      {"measurement": "paw volume (right hind foot), Average value", "setting": "[2]; day 20, Tofacitinib 5 mpk", "value": 2.05, "unit": "mL"},
      {"measurement": "Clinical scoring of arthritis (sum of the scores of the quadrupedal joints), Average value", "setting": "[2]; day 22, Tofacitinib 5 mpk", "value": 7.25},
      {"measurement": "paw volume (right hind foot), Average value", "setting": "[2]; day 22, Tofacitinib 5 mpk", "value": 2.00, "unit": "mL"},
      {"measurement": "Clinical scoring of arthritis (sum of the scores of the quadrupedal joints), Average value", "setting": "[2]; day 24, Tofacitinib 5 mpk", "value": 7.25},
      {"measurement": "paw volume (right hind foot), Average value", "setting": "[2]; day 24, Tofacitinib 5 mpk", "value": 2.06, "unit": "mL"},
      {"measurement": "Clinical scoring of arthritis (sum of the scores of the quadrupedal joints), Average value", "setting": "[2]; day 27, Tofacitinib 5 mpk", "value": 7.00},
      {"measurement": "paw volume (right hind foot), Average value", "setting": "[2]; day 27, Tofacitinib 5 mpk", "value": 2.20, "unit": "mL"},
      {"measurement": "Clinical scoring of arthritis (sum of the scores of the quadrupedal joints), Average value", "setting": "[2]; day 29, Tofacitinib 5 mpk", "value": 6.88},
      {"measurement": "paw volume (right hind foot), Average value", "setting": "[2]; day 29, Tofacitinib 5 mpk", "value": 2.16, "unit": "mL"},
      {"measurement": "Clinical scoring of arthritis (sum of the scores of the quadrupedal joints), Average value", "setting": "[2]; day 31, Tofacitinib 5 mpk", "value": 7.13},
      {"measurement": "paw volume (right hind foot), Average value", "setting": "[2]; day 31, Tofacitinib 5 mpk", "value": 2.16, "unit": "mL"},
      {"measurement": "Clinical scoring of arthritis (sum of the scores of the quadrupedal joints), Average value", "setting": "[2]; day 34, Tofacitinib 5 mpk", "value": 6.88},
      {"measurement": "paw volume (right hind foot), Average value", "setting": "[2]; day 34, Tofacitinib 5 mpk", "value": 1.02, "unit": "mL"},
      {"measurement": "Relative to G2 percentage (%) (AUC of changes in paw volume)", "setting": "[3]; Embodiment 3, G2 = Vehicle, oral, Tofacitinib 5 mpk, MTX 0.05 mpk, Nib1 1 mpk, Nib1 1 mpk + MTX 0.05 mpk", "value": 74.9, "unit": "%"},
      {"measurement": "change ratio of ΔAUC relative to the vehicle group, as fraction", "setting": "[3]; Embodiment 3, methotrexate 0.05 mg/kg, Nib1 1 mg/kg", "value": 0.749},
      {"measurement": "Area under the curve AUC (ml*day) of changes in paw volume", "setting": "[3]; Embodiment 3, oral, Tofacitinib 5 mpk, MTX 0.05 mpk, Nib1 1 mpk, Nib1 1 mpk + MTX 0.05 mpk", "value": 14.26, "unit": "mL·days"},
      {"measurement": "Clinical scoring of arthritis (sum of the scores of the quadrupedal joints), Average value", "setting": "[3]; [6]", "value": 0.00},
      {"measurement": "volume of the right hind foot, Average value", "setting": "[3]; [6]", "value": 1.31, "unit": "mL"},
      {"measurement": "Clinical scoring of arthritis (sum of the scores of the quadrupedal joints), Average value", "setting": "[3]; [7]", "value": 0.78},
      {"measurement": "volume of the right hind foot, Average value", "setting": "[3]; [7]", "value": 1.44, "unit": "mL"},
      {"measurement": "Clinical scoring of arthritis (sum of the scores of the quadrupedal joints), Average value", "setting": "[3]; [8]", "value": 3.33},
      {"measurement": "volume of the right hind foot, Average value", "setting": "[3]; [8]", "value": 1.79, "unit": "mL"},
      {"measurement": "Clinical scoring of arthritis (sum of the scores of the quadrupedal joints), Average value", "setting": "[3]; day 13, oral, Tofacitinib 5 mpk, MTX 0.05 mpk, Nib1 1 mpk, Nib1 1 mpk + MTX 0.05 mpk", "value": 5.22},
      {"measurement": "Clinical scoring of arthritis (sum of the scores of the quadrupedal joints), Average value", "setting": "[3]; [9]", "value": 6.33},
      {"measurement": "volume of the right hind foot, Average value", "setting": "[3]; [9]", "value": 2.41, "unit": "mL"},
      {"measurement": "Clinical scoring of arthritis (sum of the scores of the quadrupedal joints), Average value", "setting": "[3]; [10]", "value": 7.89},
      {"measurement": "volume of the right hind foot, Average value", "setting": "[3]; [10]", "value": 2.73, "unit": "mL"},
      {"measurement": "Clinical scoring of arthritis (sum of the scores of the quadrupedal joints), Average value", "setting": "[3]; day 21, oral, Tofacitinib 5 mpk, MTX 0.05 mpk, Nib1 1 mpk, Nib1 1 mpk + MTX 0.05 mpk", "value": 8.56},
      {"measurement": "volume of the right hind foot, Average value", "setting": "[3]; day 22, oral, Tofacitinib 5 mpk, MTX 0.05 mpk, Nib1 1 mpk, Nib1 1 mpk + MTX 0.05 mpk", "value": 3.10, "unit": "mL"},
      {"measurement": "Clinical scoring of arthritis (sum of the scores of the quadrupedal joints), Average value", "setting": "[3]; day 24, oral, Tofacitinib 5 mpk, MTX 0.05 mpk, Nib1 1 mpk, Nib1 1 mpk + MTX 0.05 mpk", "value": 8.67},
      {"measurement": "changes in body weight over time (FIG. 1)", "setting": "[4]", "value": "lower than other groups, but there was no significant difference"},
      {"measurement": "changes in body weight over time (Table 5, FIG. 5)", "setting": "[5]", "value": "decreased significantly in the initial stage, and gradually recovered in the later stage"}
    ]}
  ]
}
